In publication PMC2906706 (Cancer research, 2010):

Assays:
[1] = target: OCT2 (Homo sapiens, UniProt O15244); test: inhibition of ASP+ uptake in HEK293 cells over-expressing OCT2; format: cell-based
[2] = target: T1, OCT1 (Homo sapiens, UniProt O15245); test: inhibition of ASP+ uptake in HEK293 cells over-expressing OCT1; format: cell-based
T1 sequence (O15245 1-554): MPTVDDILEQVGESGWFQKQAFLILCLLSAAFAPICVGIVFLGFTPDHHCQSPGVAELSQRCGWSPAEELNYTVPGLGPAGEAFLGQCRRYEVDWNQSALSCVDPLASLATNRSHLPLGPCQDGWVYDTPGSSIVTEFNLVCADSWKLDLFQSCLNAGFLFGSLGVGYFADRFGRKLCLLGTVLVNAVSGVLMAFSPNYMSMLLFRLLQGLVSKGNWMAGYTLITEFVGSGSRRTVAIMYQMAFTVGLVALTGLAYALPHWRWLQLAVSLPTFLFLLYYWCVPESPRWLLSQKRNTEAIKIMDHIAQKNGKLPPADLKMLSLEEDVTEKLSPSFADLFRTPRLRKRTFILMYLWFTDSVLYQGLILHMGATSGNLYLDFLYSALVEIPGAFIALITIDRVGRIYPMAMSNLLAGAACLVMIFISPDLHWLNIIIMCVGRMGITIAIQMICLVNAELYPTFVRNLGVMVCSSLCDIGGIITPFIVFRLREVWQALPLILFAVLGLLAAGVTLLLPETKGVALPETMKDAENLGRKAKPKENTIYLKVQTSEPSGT

OCT2, sequence (O15244 whole entry): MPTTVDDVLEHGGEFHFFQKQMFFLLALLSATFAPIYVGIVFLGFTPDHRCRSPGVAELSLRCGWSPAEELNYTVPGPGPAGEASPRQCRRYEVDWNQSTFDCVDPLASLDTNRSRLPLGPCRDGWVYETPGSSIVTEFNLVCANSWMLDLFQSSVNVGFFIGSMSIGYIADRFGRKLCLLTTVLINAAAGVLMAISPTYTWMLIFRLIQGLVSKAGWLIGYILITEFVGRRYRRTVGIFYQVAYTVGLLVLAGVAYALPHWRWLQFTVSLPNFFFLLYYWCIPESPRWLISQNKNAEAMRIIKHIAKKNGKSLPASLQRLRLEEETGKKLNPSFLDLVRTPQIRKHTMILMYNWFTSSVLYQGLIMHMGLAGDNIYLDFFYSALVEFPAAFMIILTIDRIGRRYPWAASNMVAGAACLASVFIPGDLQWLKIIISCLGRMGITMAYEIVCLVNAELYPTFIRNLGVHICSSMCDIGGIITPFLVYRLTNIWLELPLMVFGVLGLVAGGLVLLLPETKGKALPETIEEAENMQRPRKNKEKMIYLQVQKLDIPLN

IC50 [1]: 0.46 µM
IC50 [2]: 27.1 µM
Compound: CN1CCN(CCOc2cc(OC3CCOCC3)c3c(Nc4c(Cl)ccc5c4OCO5)ncnc3c2)CC1 [saracatinib, N-(5-chloro-1,3-benzodioxol-4-yl)-7-[2-(4-methylpiperazin-1-yl)ethoxy]-5-(tetrahydro-2H-pyran-4-yloxy)quinazolin-4-amine]
